Test results reported in patent US6790608B2, “Methods of identifying and ADP-glucose receptor ligand, agonist or antagonist” (The Regents of the University of California, priority 2000, dated 2004).
Entries after “also recorded” stand apart in the source; their conditions may differ. Read-outs that look alike come from different tables or passages of the source.

Columns and labels:
[1] = molecular target: T1, human ADP-glucose receptor (Homo sapiens, UniProt Q9H244); assay: Intracellular calcium mobilization (FLIPR, Fluo4-AM) in CHO cells transiently transfected with the cloned receptor; assay type: cell-based; conditions: for induction of increase in intracellular Ca2+ / receptor activation: CHO cells cotransfected with receptor, Gα16 and chimeric Gαqi3; for increase in intracellular Ca2+ in untransfected cells: untransfected CHO cells
T1 construct: such that a nucleic acid molecule encoding a full-length ADP-glucose receptor can be amplified; expressed in transfected cells
Description: (§1) In order to characterize the function of the encoded receptor, the pCDNA3.1 expression construct containing the amplified receptor gene was transiently transfected into human embryonic kidney (HEK 293) cells or Chinese hamster ovary (CHO) cells. HEK 293 cells were cultured in DMEM containing 10% fetal bovine serum (FBS), and CHO cells were cultured in alpha-MEM with 5% FBS. All cells were kept at 37° C. in a 5% CO2 atmosphere.
(§2) For certain experiments, the cells were transiently cotransfected with the receptor construct and equimolar ratios of the G-protein alpha subunit Gα16 and/or the chimeric subunit […] in pCDNA3.1 (described in Saito et al., Nature 265-269 (1999)). For functional assays measuring intracellular calcium, twenty-four hours after transfection, cells were seeded into black clear-bottom 96-well plates at a density of 50,000 cells/well. Following overnight incubation the cells were loaded for 1 h with 1 μM of the fluorescent calcium indicator dye Fluo4-AM (Molecular Probes) dissolved in assay buffer containing Hank's balanced salts, 20 mM HEPES, 1% FBS, 2.5 mM probenecid, pH 7.4. After loading, the cells were washed three times with assay buffer without FBS. Addition of drugs and measurement of changes in intracellular calcium were performed using a fluorimetric imaging plate reader (FLIPR, Molecular Devices). Agonist responses were determined using the maximum change in fluorescence over baseline.
To enforce coupling of the novel receptor to the phospholipase C pathway, CHO cells were transiently cotransfected with expression constructs containing the amplified receptor DNA, Gα16 and a chimeric Gαq subunit carrying the C-terminal tail of Gαi3.
Dose-response curves were calculated using GraphPad Prism (GraphPad Software Inc.).
In order to determine the preferential G-protein coupling of the ADP-glucose receptor, mobilization of [Ca^2+]i was examined in CHO cells expressing either the receptor alone or in combination with either Gα16 or Gαqi3.

[2] = test system: endogenous ADP-glucose receptor in HEK 293 cells; assay: Intracellular calcium mobilization (FLIPR, Fluo4-AM) in HEK 293 cells; assay type: cell-based, human
Description: as §1, §2
The ADP-glucose receptor construct was also expressed in HEK 293 cells.

[3] = test system: guinea pig ileum; assay: Isometric contractions of guinea pig ileal segments in organ bath
Description: Ileal segments (about 2 cm) were prepared from male guinea pigs euthanized by asphyxiation with CO2 and mounted in an organ bath filled with Krebs-Ringer bicarbonate (KRB) buffer as described in Thomas et al., Mol. Pharmacol. 44:102-110 (1993). Isometric contractions of the preparations were measured with a force transducer and recorded on a polygraph (Grass Instruments). The contractile responses are expressed as the mass (g) required to generate the measured force. For contractile measurements of field-stimulations, ilea were mounted between platinum ring electrodes connected to a stimulator (Grass SD9). Ilea were electrically stimulated (40 mV, 8 ms duration, 0.2 Hz) for 5 min followed by a resting period of 8-10 min.
Drugs were diluted in KRB and added directly to the bath. For intraluminal drug application a polyethylene tube (I.D.: 2 mm; length: 1.2 cm) was inserted about 3 mm deep into the ileum and fixed with a surgical thread. The other end of the preparation was closed tightly by a thread. The intubated ilea were mounted in the organ bath in such a way that the open end of the polyethylene tube was extending above the buffer surface. Drugs were administered to the ileal lumen using a Hamilton syringe. After each incubation, ilea were washed three times with KRB and allowed to equilibrate for at least 10 min. For some experiments ilea were removed from animals that had been treated with 100 μg/kg pertussis toxin three days prior to the experiment. Dose response curves were obtained in separate experiments for each drug concentration tested in duplicate and EC50 values were calculated using GraphPad Prism.
However, due to the irregular nature of these contractions it was not possible to study dose-response relationships of pharmacological agents in such a preparation. Therefore, field-stimulation was used to elicit contractions that are known to be mediated by neuronal release of acetylcholine activating M3 muscarinic receptors (Cowie et al., Brit. J. Pharmacol. 64:565-580 (1978); Kilbinger et al., Eur. J. Pharmacol. 103:313-320 (1984)).

[4] = test system: rat arterial tissues; assay: Contraction of precontracted rat arterial rings in organ bath; conditions: for EC50: read-out: EC50 of relaxation
Description: Rat arterial tissues were prepared as described previously (Duckles, S. P., J. Pharmacol. Exp. Ther. 240: 697-700 (1987); Sara Sangha et al., J. Appl. Physiol. 88: 507-517 (2000)). Briefly, male Wistar rats (250 g) were sacrificed by decapitation. The thoracic and abdominal aorta and the carotid artery were immediately removed and cleaned of adhering tissue. Arteries were cut into rings (about 3 mm in length) and mounted into an organ bath filled with Kreb-Ringer-bicarbonate buffer at 37° C. (buffer composition: 119.2 mM NaCl, 25 mM NaHCO3, 4.9 mM KCl, 1.2 mM MgSO4, 11.1 mM glucose, 0.114 mM ascorbic acid, pH 7.4). The buffer was aerated by bubbling with 95% O2:5% CO2. Arterial rings were connected to a force transducer and isometric contractions of the preparations were recorded using MacLab. The contractile responses are expressed as the mass (g) required to generate the measured force. The arterial preparations were equilibrated for one hour at a resting force of 2 g and then challenged several times with 100 mM KCl to establish a baseline.
To determine the effect of ADP-glucose on evoked contractions, arterial rings were precontracted with either 0.3 μM phenylephrine or 0.3 μM serotonin. ADP-glucose was subsequently added to the arterial rings in a cumulative manner to establish a dose-response relationship between ADP-glucose concentration and arterial ring contraction. At the end of each experiment, residual constriction was reversed by the addition of 1 μM acetylcholine. Each arterial preparation was tested in triplicate with each cumulative dosage scheme carried out at least twice. Data are expressed as means±S.E.M. and dose-response curves were calculated with Prism (GraphPad, San Diego).

[5] = test system: isolated frog heart; conditions: cyclic perfusion; cited from earlier work
[6] = test system: unanesthetised frogs; conditions: systemic administration; cited from earlier work
[7] = CHO cells transiently transfected with receptor construct together with Gα16 and Gαqi3, read-out: EC50 of transient increase in [Ca2+]i
[8] = untransfected HEK 293 cells, endogenous receptor, read-out: EC50 of [Ca2+]i increase
[9] = carotid arteries, serotonin-induced constrictions

T1 sequence (Q9H244 whole entry): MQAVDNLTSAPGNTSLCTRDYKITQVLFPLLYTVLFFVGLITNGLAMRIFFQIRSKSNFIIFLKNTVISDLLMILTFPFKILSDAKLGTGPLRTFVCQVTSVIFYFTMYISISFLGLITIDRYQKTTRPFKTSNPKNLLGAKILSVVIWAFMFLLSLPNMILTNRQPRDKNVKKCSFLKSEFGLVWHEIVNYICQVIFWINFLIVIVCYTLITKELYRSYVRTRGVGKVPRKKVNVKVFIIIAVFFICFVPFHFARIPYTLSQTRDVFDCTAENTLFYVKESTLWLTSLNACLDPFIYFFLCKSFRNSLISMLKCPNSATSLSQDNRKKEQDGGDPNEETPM

Nc1ncnc2c1ncn2[C@@H]1O[C@H](COP(=O)(O)OP(=O)(O)O[C@H]2O[C@H](CO)[C@@H](O)[C@H](O)[C@H]2O)[C@@H](O)[C@H]1O [ADP-glucose, adenosine 5′-diphosphoglucose]
EC50 ([1]; CHO cells cotransfected with receptor and Gαqi3, read-out: EC50 of [Ca2+]i mobilization): 8.2 ± 1.3 µM | induction of increase in intracellular Ca2+ / receptor activation [1]: induced a dose-dependent and transient increase | EC50 ([1]; CHO cells expressing receptor alone, read-out: EC50 of [Ca2+]i mobilization): 24 ± 4.1 µM | EC50 [1, 7]: 2.98 ± 0.22 µM | EC50 ([1]; CHO cells, receptor with Gα16, read-out: EC50 of [Ca2+]i mobilization): 11.8 ± 2.4 µM | increase in intracellular Ca2+ in untransfected cells [1]: not in untransfected cells | [Ca2+]i response in HEK 293 cells [2]: strong mobilization of [Ca^2+]i | EC50 ([2]; HEK 293 cells transiently cotransfected with cloned receptor and Gα16, read-out: EC50 of intracellular Ca2+ release): 2.5 ± 0.82 µM | EC50 [2, 8]: 2.9 ± 0.51 µM | maximal inhibition of histamine-evoked contractions ([3]; contractions produced by 0.3 μM histamine): 60% | EC50 ([3]; contractions produced by 0.3 μM histamine, read-out: EC50 of inhibition of histamine-evoked contractions): 6.2 ± 1.8 µM | EC50 ([3]; field-stimulated, untreated ileum, read-out: EC50 of inhibition of electrically evoked contractions): 6.64 ± 0.4 µM | maximal inhibition of electrically evoked contractions ([3]; ileum from pertussis toxin treated animals): 40% | EC50 ([3]; ileum from pertussis toxin treated animals, read-out: EC50 of inhibition of electrically evoked contractions): 35.5 ± 5.5 µM | effect on electrically-evoked contractions ([3]; ileum punctured to release intraluminal content into the bath): strong inhibition | effect on field-stimulated contractions ([3]; intraluminal administration): no effect | maximal inhibition of electrically evoked contractions ([3]; maximally effective concentrations, untreated ileum): 90% | effect on contractions produced by oxotremorine M ([3]; muscarinic agonist oxotremorine M): unaffected | effect on spontaneous contractions ([3]; spontaneous contractions, ileum preparations): inhibition of spontaneous contractions | EC50 ([4]; abdominal aorta, precontracted with 0.3 μM phenylephrine): 6.67 ± 1.8 µM | EC50 ([4]; abdominal aorta, precontracted with 0.3 μM serotonin): 3.26 ± 0.12 µM | maximal relaxation ([4]; abdominal aorta, serotonin-precontracted): about 80% | maximal relaxation [4, 9]: 40% | EC50 [4, 9]: 20.5 ± 6.3 µM | EC50 ([4]; carotid artery, precontracted with 0.3 μM phenylephrine): 3.1 ± 0.3 µM | maximal relaxation ([4]; phenylephrine-precontracted, highest concentration tested, all three tissues): 40%-50% | EC50 ([4]; thoracic aorta, precontracted with 0.3 μM phenylephrine): 13.8 ± 2.8 µM | response of serotonin-precontracted thoracic aorta ([4]; thoracic aorta, serotonin-precontracted): unresponsive | effect on untreated arterial tissue ([4]; untreated arterial tissue at resting force): no effect

Nc1ncnc2c1ncn2[C@@H]1O[C@H](COP(=O)(O)OP(=O)(O)O[C@H]2O[C@H](CO)[C@@H](O)[C@H](O)[C@@H]2O)[C@@H](O)[C@H]1O [ADP-mannose]
induction of increase in intracellular Ca2+ / receptor activation [1]: only ADP-glucose and ADP-ribose induced a dose-dependent and transient increase; also recorded: unable to activate the receptor

Nc1ncnc2c1ncn2[C@@H]1O[C@H](COP(=O)(O)OP(=O)(O)OC[C@H]2OC(O)[C@H](O)[C@@H]2O)[C@@H](O)[C@H]1O (stereo partly shown) [ADP-ribose]
induction of increase in intracellular Ca2+ / receptor activation [1]: partial agonist; also recorded: induced a dose-dependent and transient increase | EC50 [1, 7]: 59.4 ± 7.3 µM | increase in intracellular Ca2+ in untransfected cells [1]: not in untransfected cells | [Ca2+]i response in HEK 293 cells [2]: full agonist | EC50 [2, 8]: 38.7 ± 10.6 µM | effect on electrically-evoked contractions ([3]; field-stimulated ileum, drug added to bath): very similar inhibitory effects | effect on action potential in the sinus node [5]: decrease in the action potential duration and rate of rise in the sinus node | effect on heart rate and contraction force [5]: dose-dependent decrease in heart rate and contraction force | effect on heart rate [6]: reversible increase in heart rate

Nc1ncnc2c1ncn2[C@@H]1O[C@H](COP(=O)(O)OP(=O)(O)O)[C@@H](O)[C@H]1O [ADP]
induction of increase in intracellular Ca2+ / receptor activation [1]: only ADP-glucose and ADP-ribose induced a dose-dependent and transient increase

Nc1ncnc2c1ncn2[C@@H]1O[C@H](COP(=O)(O)O)[C@@H](O)[C@H]1O [AMP]
induction of increase in intracellular Ca2+ / receptor activation [1]: only ADP-glucose and ADP-ribose induced a dose-dependent and transient increase

Nc1ncnc2c1ncn2[C@@H]1O[C@H](COP(=O)(O)OP(=O)(O)OP(=O)(O)O)[C@@H](O)[C@H]1O [ATP]
induction of increase in intracellular Ca2+ / receptor activation [1]: only ADP-glucose and ADP-ribose induced a dose-dependent and transient increase

Nc1ccn([C@@H]2O[C@H](COP(=O)(O)OP(=O)(O)O[C@H]3O[C@H](CO)[C@@H](O)[C@H](O)[C@H]3O)[C@@H](O)[C@H]2O)c(=O)n1 [CDP-glucose]
induction of increase in intracellular Ca2+ / receptor activation [1]: only ADP-glucose and ADP-ribose induced a dose-dependent and transient increase | [Ca2+]i response in HEK 293 cells [2]: did not respond

Nc1nc2c(ncn2[C@@H]2O[C@H](COP(=O)(O)OP(=O)(O)O[C@H]3O[C@H](CO)[C@@H](O)[C@H](O)[C@H]3O)[C@@H](O)[C@H]2O)c(=O)[nH]1 [GDP-glucose]
induction of increase in intracellular Ca2+ / receptor activation [1]: only ADP-glucose and ADP-ribose induced a dose-dependent and transient increase | [Ca2+]i response in HEK 293 cells [2]: did not respond

Cc1cn([C@H]2C[C@H](O)[C@@H](COP(=O)(O)OP(=O)(O)O[C@H]3O[C@H](CO)[C@@H](O)[C@H](O)[C@H]3O)O2)c(=O)[nH]c1=O [TDP-glucose]
induction of increase in intracellular Ca2+ / receptor activation [1]: only ADP-glucose and ADP-ribose induced a dose-dependent and transient increase | [Ca2+]i response in HEK 293 cells [2]: did not respond

Nc1ncnc2c1ncn2[C@@H]1O[C@H](CO)[C@@H](O)[C@H]1O [adenosine]
induction of increase in intracellular Ca2+ / receptor activation [1]: only ADP-glucose and ADP-ribose induced a dose-dependent and transient increase
